Counter-ions that a name gives are not always drawn.

From patent publication US20100029682A1, “NOVEL CHROMENE AND THIOCHROMENE CARBOXAMIDE DERIVATIVES, METHODS FOR PREPARING SAME AND THERAPEUTIC APPLICATIONS OF SAME” (priority 2006, published 2010) come the findings set out here.

As a reminder, the melting point is the temperature, or range, at which the solid turns liquid. `O=C(NCCCCN1CCN(c2ccccc2F)CC1)C1=Cc2ccccc2OC1` (as salt: HCl) [Example 3, 2-H-Chromene-3-carboxylic acid {4-[4-(2-fluorophenyl)-piperazin-1-yl]-butyl}-amide] came in with a melting point of 231 °C. Molecule `O=C(NCCCCN1CCN(c2ccccc2)CC1)C1=Cc2ccccc2OC1` (as salt: HCl) [Example 4, 2H-Chromene-3-carboxylic acid {4-(4-phenylpiperazin-1-yl)-butyl}-amide] came in with a melting point of 239 °C.

Turning to `O=C(NCCCCN1CCN(c2ccc(Cl)cc2)CC1)C1=Cc2ccccc2OC1` (as salt: HCl) [Example 5, 2H-Chromene-3-carboxylic acid {4-[4-(4-chlorophenyl)-piperazin-1-yl]-butyl}-amide], the melting point amounted to 236 °C. Consider `O=C(NCCCCN1CCN(c2cccc(Cl)c2)CC1)C1=Cc2ccccc2OC1` (as salt: HCl) [Example 6, 2H-Chromene-3-carboxylic acid {4-[4-(3 chlorophenyl)-piperazin-1-yl]-butyl}-amide], for which the melting point turned out to be 216 °C. Regarding `O=C(NCCCCN1CCN(c2ccccc2Cl)CC1)C1=Cc2ccccc2OC1` (as salt: HCl) [Example 7, 2H-Chromene-3 carboxylic acid {4-[4-(2-chlorophenyl)-piperazin-1-yl]-butyl}-amide], the melting point is 201 °C. The result for `O=C(NCCCCN1CCN(c2ccc(F)cc2)CC1)C1=Cc2ccccc2OC1` (as salt: HCl) [Example 8, 2H Chromene-3-carboxylic acid {4-[4-(4 fluorophenyl)-piperazin-1-yl]-butyl}-amide] reads 243 °C; that for `Cc1ccccc1N1CCN(CCCCNC(=O)C2=Cc3ccccc3OC2)CC1` (as salt: HCl) [Example 9, 2H Chromene-3-carboxylic acid {4-[4-(2-methylphenyl)-piperazin-1-yl]-butyl}-amide], 187 °C; that for `Cc1ccc(N2CCN(CCCCNC(=O)C3=Cc4ccccc4OC3)CC2)c(C)c1` (as salt: HCl) [Example 10, 2H-Chromene-3-carboxylic acid {4-[4-(2,4-dimethylphenyl)-piperazin-1-yl]-butyl}-amide], 207 °C.

Molecule `Cc1cccc(N2CCN(CCCCNC(=O)C3=Cc4ccccc4OC3)CC2)c1C` (as salt: HCl) [Example 11, 2H-Chromene-3-carboxylic acid {4-[4-(2,3-dimethylphenyl)piperazin-1-yl]-butyl}-amide] yielded a melting point of 202 °C.

As to `N#Cc1ccccc1N1CCN(CCCCNC(=O)C2=Cc3ccccc3OC2)CC1` (as salt: HCl) [Example 12, 2H-Chromene-3-carboxylic acid {4-[4-(2-cyanophenyl)-piperazin-1-yl]-butyl}-amide], the melting point came out at 194 °C. The result for `N#Cc1ccc(N2CCN(CCCCNC(=O)C3=Cc4ccccc4OC3)CC2)cc1` (as salt: HCl) [Example 13, 2H-Chromene-3-carboxylic acid {4-[4-(4-cyanophenyl)piperazin 1-yl]-butyl}-amide] reads 212 °C; that for `O=C(NCCCCN1CCN(c2ccc(C(F)(F)F)cc2)CC1)C1=Cc2ccccc2OC1` (as salt: HCl) [Example 15, 2-H-Chromene-3-carboxylic acid {4-[4-(4-trifluoromethylphenyl)-piperazin-1-yl]-butyl}-amide], 261.9 °C; that for `O=C(NCCCCN1CCN(c2cccc(C(F)(F)F)c2)CC1)C1=Cc2ccccc2OC1` (as salt: HCl) [Example 16, 2H-Chromene-3-carboxylic acid {4-[4-(3-trifluoromethylphenyl)-piperazin-1-yl]-butyl}-amide], 234 °C. The result for `O=C(NCCCCN1CCN(c2ccccc2C(F)(F)F)CC1)C1=Cc2ccccc2OC1` (as salt: HCl) [Example 17, 2H-Chromene-3 carboxylic acid {4-[4-(2-trifluoromethylphenyl)-piperazin-1-yl]-butyl}-amide] reads 161 °C; that for `O=C(NCCCCN1CCN(c2ccc([N+](=O)[O-])cc2)CC1)C1=Cc2ccccc2OC1` (as salt: HCl) [Example 18, 2H-Chromene 3 carboxylic acid {4-[4-(4-nitrophenyl)-piperazin-1-yl]-butyl}-amide], 243 °C. Next, `COc1ccccc1N1CCN(CCCCNC(=O)C2=Cc3cc(Cl)ccc3OC2)CC1` (as salt: HCl) [Example 29, 6-Chloro-2H-chromene-3-carboxylic acid {4-[4-(2-methoxyphenyl)-piperazin-1-yl]-butyl}-amide]: 155 °C; `O=C(NCCCCN1CCN(c2ccccc2F)CC1)C1=Cc2cc(Cl)ccc2OC1` (as salt: HCl) [Example 30, 6-Chloro-2H-chromene-3-carboxylic acid {4-[4-(2-fluorophenyl)-piperazin-1-yl]-butyl}-amide]: 214 °C; `N#Cc1cccc(N2CCN(CCCCNC(=O)C3=Cc4cc(Cl)ccc4OC3)CC2)c1` (as salt: HCl) [Example 31, 6-Chloro-2H-chromene-3-carboxylic acid {4-[4-(3-cyanophenyl)-piperazin-1-yl]-butyl}-amide]: 120 °C (dec.). Molecule `O=C(NCCCCN1CCN(c2cccc(Cl)c2Cl)CC1)C1=Cc2ccccc2SC1` (as salt: HCl) [Example 32, 2H-thiochromene-3-carboxylic acid {4-[4-(2,3-dichlorophenyl)piperazin-1-yl]-butyl}-amide] had a melting point of 215 °C. As for `O=C(NCCCCN1CCN(c2ccccc2F)CC1)C1=Cc2ccccc2SC1` (as salt: HCl) [Example 33, 2H-Thiochromene-3-carboxylic acid {4-[4-(2-fluorophenyl)piperazin-1-yl]-butyl}-amide], the melting point amounted to 212 °C. The result for `COc1ccccc1N1CCN(CCCCNC(=O)C2=Cc3ccccc3SC2)CC1` (as salt: HCl) [Example 34, 2H-Thiochromene-3-carboxylic acid {4-[4-(2-methoxyphenyl)piperazin-1-yl]-butyl}-amide] reads 208 °C; that for `N#Cc1cccc(N2CCN(CCCCNC(=O)C3=Cc4ccccc4SC3)CC2)c1` (as salt: HCl) [Example 35, 2H-Thiochromene-3-carboxylic acid {4-[4-(3-cyanophenyl)-piperazin-1-yl]-butyl}-amide], 209 °C; that for `O=C(NCCCCN1CCN(c2cccc(O)c2)CC1)C1=Cc2ccccc2SC1` (as salt: HCl) [Example 41, 2H-Thiochromene-3-carboxylic acid {4-[4-(3-hydroxyphenyl)-piperazin-1-yl]-butyl}-amide], 182 to 184 °C. The result for `CC1(C)Sc2ccccc2C=C1C(=O)NCCCCN1CCN(c2cccc(C#N)c2)CC1` (as salt: HCl) [Example 44, 2,2-Dimethyl-2H thiochromene-3-carboxylic acid {4-[4-(3-cyanophenyl)-piperazin-1-yl]-butyl}-amide] reads 155 °C; that for `O=C(NCCCCN1CCN(c2cccc(CO)c2)CC1)C1=Cc2ccccc2OC1` (as salt: HCl) [Example 46, 2H-chromene-3-carboxylic acid {4-[4-(3-hydroxymethylphenyl)-piperazin-1-yl]-butyl}-amide], 194 °C.
